According to ChEMBL document CHEMBL3046846, “Synthesis of N-Alkyl-2, 3-dimethyl-5-[N-(5-halo-2-methylphenyl)carbamoyl]-6-pyrazinecarboxamides and Their Herbicidal Activity” (J Pestic Sci, 1997):

Tests used:
Xanthium strumarium [1] = test: Herbicidal activity against Xanthium strumarium (cocklebur) 5000 g/ha after 2 weeks; format: functional
Abutilon theophrasti [2] = test: Herbicidal activity against Abutilon theophrasti (velvetleaf) at 250 g/ha after 2 weeks; format: functional
Glycine max [3] = test: Herbicidal activity against Glycine max (soybean) at 500 g/ha after 2 weeks; format: organism-based; conditions: in vivo, 336 h
Xanthium strumarium [4] = test: Herbicidal activity against Xanthium strumarium (cocklebur) 250 g/ha after 2 weeks; format: functional
Triticum aestivum [5] = test: Herbicidal activity against Triticum aestivum (wheat) at 250 g/ha after 2 weeks; format: organism-based; conditions: in vivo, 336 h
Abutilon theophrasti [6] = test: Herbicidal activity against Abutilon theophrasti (velvetleaf) at 500 g/ha after 2 weeks; format: functional
Veronica persica [7] = test: Herbicidal activity against Veronica persica at 250 g/ha after 2 weeks; format: functional
Glycine max [8] = test: Herbicidal activity against Glycine max (soybean) at 5000 g/ha after 2 weeks; format: organism-based; conditions: in vivo, 336 h
Abutilon theophrasti [9] = test: Herbicidal activity against Abutilon theophrasti (velvetleaf) at 5000 g/ha after 2 weeks; format: functional
Xanthium strumarium [10] = test: Herbicidal activity against Xanthium strumarium (cocklebur) 500 g/ha after 2 weeks; format: functional
Triticum aestivum [11] = test: Herbicidal activity against Triticum aestivum (wheat) at 500 g/ha after 2 weeks; format: ADME, organism-based; conditions: in vivo, 336 h
Veronica persica [12] = test: Herbicidal activity against Veronica persica at 5000 g/ha after 2 weeks; format: functional
Avena fatua [13] = test: Herbicidal activity against Avena fatua at 250 g/ha after 2 weeks; format: functional
Galium spurium [14] = test: Herbicidal activity against Galium spurium var. echinospermon (Wally.) Hayek at 500 g/ha after 2 weeks; format: functional
Avena fatua [15] = test: Herbicidal activity against Avena fatua at 5000 g/ha after 2 weeks; format: functional
Veronica persica [16] = test: Herbicidal activity against Veronica persica at 500 g/ha after 2 weeks; format: functional
Echinochloa crus-galli [17] = test: Herbicidal activity against Echinochloa crus-galli (barnyard grass) at 500 g/ha after 2 weeks; format: functional
Galium spurium [18] = test: Herbicidal activity against Galium spurium var. echinospermon (Wally.) Hayek at 5000 g/ha after 2 weeks; format: functional
Glycine max [19] = test: Herbicidal activity against Glycine max (soybean) at 250 g/ha after 2 weeks; format: organism-based; conditions: in vivo, 336 h
Triticum aestivum [20] = test: Herbicidal activity against Triticum aestivum (wheat) at 5000 g/ha after 2 weeks; format: ADME, organism-based; conditions: in vivo, 336 h
Galium spurium [21] = test: Herbicidal activity against Galium spurium var. echinospermon (Wally.) Hayek at 250 g/ha after 2 weeks; format: functional
Avena fatua [22] = test: Herbicidal activity against Avena fatua at 500 g/ha after 2 weeks; format: functional
Echinochloa crus-galli [23] = test: Herbicidal activity against Echinochloa crus-galli (barnyard grass) at 5000 g/ha after 2 weeks; format: functional
Echinochloa crus-galli [24] = test: Herbicidal activity against Echinochloa crus-galli (barnyard grass) at 250 g/ha after 2 weeks; format: functional
Xanthium strumarium [25] = test: Herbicidal activity against Xanthium strumarium (cocklebur) 200 g/ha after 2 weeks; format: functional
Echinochloa crus-galli [26] = test: Herbicidal activity against Echinochloa crus-galli (barnyard grass) at 200 g/ha after 2 weeks; format: functional
Triticum aestivum [27] = test: Herbicidal activity against Triticum aestivum (wheat) at 200 g/ha after 2 weeks; format: organism-based; conditions: in vivo, 336 h
Abutilon theophrasti [28] = test: Herbicidal activity against Abutilon theophrasti (velvetleaf) at 200 g/ha after 2 weeks; format: functional
Veronica persica [29] = test: Herbicidal activity against Veronica persica at 200 g/ha after 2 weeks; format: functional
Avena fatua [30] = test: Herbicidal activity against Avena fatua at 200 g/ha after 2 weeks; format: functional
Galium spurium [31] = test: Herbicidal activity against Galium spurium var. echinospermon (Wally.) Hayek at 200 g/ha after 2 weeks; format: functional
Glycine max [32] = test: Herbicidal activity against Glycine max (soybean) at 200 g/ha after 2 weeks; format: organism-based; conditions: in vivo, 336 h
Triticum aestivum [33] = test: Herbicidal activity against Triticum aestivum (wheat) at 140 g/ha after 2 weeks; format: organism-based; conditions: in vivo, 336 h
Avena fatua [34] = test: Herbicidal activity against Avena fatua at 140 g/ha after 2 weeks; format: functional
Veronica persica [35] = test: Herbicidal activity against Veronica persica at 140 g/ha after 2 weeks; format: functional
Glycine max [36] = test: Herbicidal activity against Glycine max (soybean) at 140 g/ha after 2 weeks; format: organism-based; conditions: in vivo, 336 h
Galium spurium [37] = test: Herbicidal activity against Galium spurium var. echinospermon (Wally.) Hayek at 140 g/ha after 2 weeks; format: functional
Echinochloa crus-galli [38] = test: Herbicidal activity against Echinochloa crus-galli (barnyard grass) at 140 g/ha after 2 weeks; format: functional
Xanthium strumarium [39] = test: Herbicidal activity against Xanthium strumarium (cocklebur) 140 g/ha after 2 weeks; format: functional
Abutilon theophrasti [40] = test: Herbicidal activity against Abutilon theophrasti (velvetleaf) at 140 g/ha after 2 weeks; format: functional

Row | SMILES | Activity (Xanthium strumarium [1]) [%] | Activity (Abutilon theophrasti [2]) [%] | Activity (Glycine max [3]) [%] | Activity (Xanthium strumarium [4]) [%] | Activity (Triticum aestivum [5]) [%] | Activity (Abutilon theophrasti [6]) [%] | Activity (Veronica persica [7]) [%] | Activity (Glycine max [8]) [%] | Activity (Abutilon theophrasti [9]) [%] | Activity (Xanthium strumarium [10]) [%] | Activity (Triticum aestivum [11]) [%] | Activity (Veronica persica [12]) [%] | Activity (Avena fatua [13]) [%] | Activity (Galium spurium [14]) [%] | Activity (Avena fatua [15]) [%] | Activity (Veronica persica [16]) [%] | Activity (Echinochloa crus-galli [17]) [%] | Activity (Galium spurium [18]) [%] | Activity (Glycine max [19]) [%] | Activity (Triticum aestivum [20]) [%] | further results
1 | CCNC(=O)c1nc(C)c(C)nc1C(=O)Nc1cc(Cl)ccc1C | 95 | <10 | < 10 | <10 | < 10 | <10 | <10 | < 10 | 30 | 10 | < 10 | 95 | <10 | <10 | <10 | 70 | <10 | 30 | < 10 | 10 | Activity (Galium spurium [21]): <10%; Activity (Avena fatua [22]): <10%; Activity (Echinochloa crus-galli [23]): 50%; Activity (Echinochloa crus-galli [24]): <10%
2 | CCCNC(=O)c1nc(C)c(C)nc1C(=O)Nc1cc(Cl)ccc1C | 30 | <10 | < 10 | <10 | < 10 | <10 | 95 | < 10 | 95 | 50 | < 10 | 95 | <10 | <10 | <10 | 70 | <10 | 50 | < 10 | 30 | Activity (Galium spurium [21]): <10%; Activity (Avena fatua [22]): <10%; Activity (Echinochloa crus-galli [23]): 50%; Activity (Echinochloa crus-galli [24]): <10%
3 | Cc1ccc(Cl)cc1NC(=O)c1nc(C)c(C)nc1C(=O)NC(C)C | 95 | <10 | < 10 | 50 | < 10 | <10 | 50 | < 10 | 95 | 50 | < 10 | 95 | <10 | <10 | 50 | 95 | <10 | 95 | < 10 | 30 | Activity (Galium spurium [21]): <10%; Activity (Avena fatua [22]): <10%; Activity (Echinochloa crus-galli [23]): 70%; Activity (Echinochloa crus-galli [24]): <10%
4 | CCCCNC(=O)c1nc(C)c(C)nc1C(=O)Nc1cc(Cl)ccc1C | 50 | <10 | < 10 | <10 | < 10 | <10 | 10 | < 10 | 95 | <10 | < 10 | 95 | <10 | <10 | <10 | 50 | <10 | 30 | < 10 | 30 | Activity (Galium spurium [21]): <10%; Activity (Avena fatua [22]): <10%; Activity (Echinochloa crus-galli [23]): 50%; Activity (Echinochloa crus-galli [24]): <10%
5 | Cc1ccc(Cl)cc1NC(=O)c1nc(C)c(C)nc1C(=O)NCC(C)C | 95 | <10 | < 10 | <10 | < 10 | <10 | 30 | < 10 | 95 | <10 | < 10 | 95 | <10 | <10 | 95 | 95 | 30 | 95 | < 10 | 70 | Activity (Galium spurium [21]): <10%; Activity (Avena fatua [22]): <10%; Activity (Echinochloa crus-galli [23]): 95%; Activity (Echinochloa crus-galli [24]): <10%
6 | CCC(C)NC(=O)c1nc(C)c(C)nc1C(=O)Nc1cc(Cl)ccc1C (racemic) | 95 | <10 | < 10 | <10 | < 10 | <10 | 70 | < 10 | 95 | <10 | < 10 | 95 | <10 | <10 | 50 | 70 | 10 | 95 | < 10 | 70 | Activity (Galium spurium [21]): <10%; Activity (Avena fatua [22]): <10%; Activity (Echinochloa crus-galli [23]): 95%; Activity (Echinochloa crus-galli [24]): <10%
7 | CS(=O)(=O)NC(=O)c1cc(Oc2ccc(C(F)(F)F)cc2Cl)ccc1[N+](=O)[O-] [FOMESAFEN] |  |  |  |  |  |  |  |  |  |  |  |  |  |  |  |  |  |  |  |  | Activity (Xanthium strumarium [25]): 50%; Activity (Echinochloa crus-galli [26]): 30%; Activity (Triticum aestivum [27]): 30%; Activity (Abutilon theophrasti [28]): 95%; Activity (Veronica persica [29]): 95%; Activity (Avena fatua [30]): <10%; Activity (Galium spurium [31]): 70%; Activity (Glycine max [32]): < 10%
8 | CC(C)C1(C)N=C(c2nc3ccccc3cc2C(=O)O)NC1=O (stereo not given) [IMAZAQUIN] |  |  |  |  |  |  |  |  |  |  |  |  |  |  |  |  |  |  |  |  | Activity (Triticum aestivum [33]): 70%; Activity (Avena fatua [34]): 50%; Activity (Veronica persica [35]): 50%; Activity (Glycine max [36]): < 10%; Activity (Galium spurium [37]): 70%; Activity (Echinochloa crus-galli [38]): 30%; Activity (Xanthium strumarium [39]): 95%; Activity (Abutilon theophrasti [40]): 30%
